The text below walks through data of publication PMC11001683 (European Journal of Clinical Pharmacology, 2024).

The nature of data set [1]: ACD855 mutagenic/genotoxic potential. The method, then:
(§1) The clinical efficacy, safety, and pharmacokinetics (PK) of ACD855 have been evaluated in various domestic animals for the use as a veterinary drug. […] Based on pharmacology studies in rodents and safety studies in rat and dog, the first oral dose in an initiated Phase I single ascending dose (SAD) study (EudraCT No. 2018-002320-16), in healthy volunteers was set to 1 mg. […] The study was prematurely terminated after interim PK analysis of the first cohort, and long-term follow-up of the dosed subjects was performed.

The nature of data set [2]: ACD855 Phase I SAD study, cohort 1, plasma pharmacokinetics. To be noted: human, 1 mg oral. It counts as in vivo. The method, then: as §1
Details of data set [3]: method as in PMID 37394539. To be noted: cited from earlier work.
For data set [4] the following is noted: mice; cited from earlier work.
Data set [5] in a line: Allometric scaling prediction of ACD855 elimination half-life in man. The arrangement: species or system human. How it is done: as §1
Data set [6] is described as follows: ACD855 clinical signs in dogs. It counts as in vivo.

The structures appear in SMILES notation.

As to `Cc1cc(-n2c(=O)[nH]c(=O)n(C)c2=O)ccc1Oc1ccc(S(=O)(=O)C(F)(F)F)cc1` [ACD855, Ponazuril], the “mutagenic or genotoxic potential” value in data set [1] was “no indication of any mutagenic or genotoxic potential”. Besides, the concentration at 280 days in data set [2] (all subjects but one, detection limit 1 ng/mL, read-out: plasma level at 280 days) is greater than 1 ng/mL. Besides, in data set [2] (cohort 1, healthy volunteers, read-out: elimination half-life in plasma in humans, average (converted)), the half-life (as a rule, the time in which the quantity being followed falls by half) was 68 days. Further, the “effect in the forced swim test model” value in data set [3] is recorded as “anti-depressant-like effects”. Further, the “effect in preclinical in vivo cognition models” value in data set [4] is “pro-cognitive effects”. For the same compound, the “predicted elimination half-life in man” value in data set [5] is recorded as 4.6 days. Moreover, the “notable clinical signs in dogs” value in data set [6] is “gastrointestinal disturbance”.
